# Results reported in patent publication EP1028734B1, “USE OF SPECIFIC STEADY-STATE R-TYPE CALCIUM CHANNEL BLOCKERS” (priority 1997, dated 1999).
# Entries after “also recorded” stand apart in the source; their conditions may differ.
# Columns and labels:
# [1] = tested on: human aortic vascular smooth muscle cell line; test: spontaneous proliferation of human aortic vascular smooth muscle cell line; assay type: cell-based; details: MV8608 10^-8M, MV8612 10^-8M, nifedipine 10^-7M, Figure 28
# rat paw oedema = assay type: in vivo, rats
# Experimental: (§1) In this experiment (N =5 to 6 animals per group), the anti-oedemagenic action of compounds MV 8608 and MV 8612 against bradykinin and several mediators which are reported to be involved in the inflammatory processes, was evaluated. The procedures used to perform these experiments have been reported elsewhere (Neves et al., 1993, Eur. J. Pharmacol. 243:213-219; Campos et al., 1995, Br. J. Pharmacol. 114:1005-1013; Campos et al., 1996, Br. J. Pharmacol. 117:793-798; Eur. J. Pharmacol. 316:227-286). […] As reported previously, in rats treated […] prior to a systemic injection of LPS, both B1 and B2 kinin selective agonists caused marked oedema formation (Figures 37C and D (Campos et al., 1996, supra)).
# R-type Ca^2+ channel = test: Fura-2 total [Ca]i measurement, sustained increase of [Ca]i via stimulation of R-type Ca2+ channels; assay type: cell-based, chick, human, rabbit
# Description: This sustained increase of Ca^2+ induced by depolarization of the cell membrane or hormones such as PAF, ET-1 and bradykinin is due to the increase of Ca^2+ influx through the R-type Ca^2+ channels at the sarcolemmal membrane and/or the nuclear membrane (Bkaily G., 1994, supra; 1996, supra; 1997a-d, supra). Using Ca^2+ fluorescence probes Fura-2 or Fluo-3 and 2 and three-dimension Ca^2+ imaging techniques (Bkaily G., 1994, supra; 1996, supra; 1997a-d, supra), the effect of hormones and drugs could be easily tested. These two methods are used with single cells of different types as described above. […]
# Using Fura-2 [Ca]i measurement technique, in one series of experiments we tested the effect of MV8612 (10^-9M) on the stimulation of R-type Ca^2+-induced sustained increase of [Ca]i by sustained depolarization (Figures 26 and 27), PAF (10^-9M, Figure 34) and ET-1 (Figures 33 and 34).
# [2] = tested on: TTX-sensitive fast Na^+ current; test: whole-cell voltage clamp, TTX-sensitive fast Na+ current in single heart cell (MV8608); assay type: cell-based; details: 10^-11M to 10^-7M, n=5
# Experimental: (§2) Single cells of different types in culture were prepared from biopsies of human, chick and rabbit. Known and accepted methods for the isolation of fast Na^+ current, T, L and R-type Ca^2+ channels as well as delayed outward K^+ current were used (Bkaily 1994, supra).
# (§3) The compounds to be tested are added to the appropriate extracellular solution after recording a stable ionic current or normal steady-state level of [Ca]n and [Ca]n The effect of different concentrations of compounds are tested on the different type of current and [Ca]i of the different cell types. The effect of each concentration of the compounds in function of the time of exposure are then determined. Once the steady-state effect is reached, the second concentration is added, etc.
# In one series of experiments (n=5), the effect of different concentrations of MV8608 (10^-11M to 10^-7M) on the TTX-sensitive fast Na^+ current were tested using the whole-cell voltage clamp technique and experimental conditions reported elsewhere (Bkaily et al., 1988, supra; 1993, supra).
# mouse paw oedema = assay type: in vivo, mice; details: i.p.
# Experimental: as §1
# When tested in mice, MV 8612 (40 to 160 nmol/paw) inhibited bradykinin and carrageenan-induced paw oedema in mice in a dose-dependent manner (Figures 46A and B).
# L-type Ca^2+ channel = test: whole-cell voltage clamp, L-type ICa of heart cells of chick embryos; assay type: cell-based
# Experimental: as §2, §3
# In another series of experiments (n=5), the effect of different concentrations of MV8608 (10^-11 to 10^-6M) were tested on the L-type ICa of heart cells of chick embryos using the whole-cell and experimental conditions and protocols described elsewhere by the inventors (Bkaily G. et al., 1993, supra). As for the T-type ICa' the L-type ICa was not affected by 10^-11 to 10^-10M MV8608.
# In another series of experiments (n=4), we tested the effect of MV8612 on the L-type Ca^2+ current (ICa) in chick embryonic heart cells using the whole-cell voltage clamp technique referred to above. Superfusion with 10^-9M of MV8612 decreased ICa amplitude by 10% and increasing the concentration of the compound up to 10^-8M further decreased the current amplitude by 25%. Higher concentration of MV8612 (10^-7M) decreased the ICa amplitude by 62%.
# rat uterus = details: Calixto et al., 1987; cited from earlier work
# T-type Ca^2+ current = test: whole-cell voltage clamp, T-type Ca2+ current in heart cells; assay type: cell-based; details: 10^-9M to 10^-7M, n=7
# Experimental: as §2, §3
# In another series of experiments (n=7), the effect of different concentrations of MV8608 were tested on the T-type Ca^2+ current (lCa) using the whole-cell voltage clamp technique and classical experimental conditions described elsewhere by the inventors (Bkaily G. et al., 1991, supra; 1992, supra; 1993, supra). […] As it can be seen in that figure, the inset effect of MV8608 in T-type ICa is immediate.
# murine model of pleurisy = assay type: in vivo, mice
# Experimental: To assess further the anti-inflammatory action of MV 8612 and MV 8608, their effects against the inflammatory responses caused by several mediators of inflammation in a murine model of pleurisy were tested (Saleh et al., 1996, Br. J. Pharmacol 118:811-819). In addition, both compounds were tested against the increase of vascular permeability caused by bradykinin in the rat skin (Neves et al., 1993b, Phytotherapy Research. 7:356-362).
# [3] = 100 nmol/paw, rats treated 30 days prior (text LPS, Figure 37 BCG)
# [4] = 10 and 100 nmol/paw co-injected
# [5] = 10 and 100 nmol/paw, dose-dependant
# [6] = MV 8612 30 and 60, MV 8608 30, i.p.
substance,measurement,setting,value
"(15R, 16R, 20S)-14, 16:15,20:16,21-triepoxi-15,16-seco 14β, 17α-pregn-5-ene-3β, 15-diol [MV8608]",spontaneous proliferation,[1],significantly decreased
same,oedema induced by prostaglandin E2 (PGE2),rat paw oedema; 100 nmol/paw,partially inhibited
same,oedema induced by substance P,rat paw oedema; 100 nmol/paw,unaffected
same,paw oedema induced by PAF,rat paw oedema; 100 nmol/paw,consistently inhibited
same,bradykinin-induced rat paw oedema,rat paw oedema; [3],significantly inhibited
same,des-Arg^9-BK-induced rat paw oedema,rat paw oedema; [3],significantly inhibited
same,carrageenan-induced paw oedema,rat paw oedema; 10 and 100 nmol/paw,significantly prevented
same,dextran-induced paw oedema,rat paw oedema; [4],significantly prevented
same,histamine-induced paw oedema,rat paw oedema; [4],significantly prevented
same,serotonin-induced paw oedema,rat paw oedema; [4],significantly prevented
same,paw oedema induced by des-Arg^9-bradykinin,"rat paw oedema; 10 and 100 nmol/paw co-injected, animals treated with LPS",dose-related inhibition
same,oedema formation induced by subplantar injection of ovalbumin,"rat paw oedema; 10 and 100 nmol/paw, animals actively sensitised",inhibited significantly
same,bradykinin-induced hindpaw oedema,"rat paw oedema; 10 and 100 nmol/paw, animals treated with LPS",no significant effect
same,potentiation of paw oedema by low dose of des-Arg^9-BK plus PAF,rat paw oedema; [5],prevented the potentiation
same,potentiation of paw oedema by low dose of des-Arg^9-BK with PGE2,rat paw oedema; [5],prevented the potentiation
same,sustained increase of [Ca]i induced by 10^-7M PAF,"R-type Ca^2+ channel; 10^-6M of compound, human aortic VSM cell line (Figure 23)",able to block
same,sustained increase of [Ca]i induced by 10^-7M PAF,R-type Ca^2+ channel; 10^-9M of compound,failed to significantly decrease
same,"sustained increase of [Ca]i induced by sustained depolarization, ET-1 (10^-9M), PAF (10^-9M) or BK (10^-6M)",R-type Ca^2+ channel; 10^-9M of compound,completely blocked
same,time within which the block occurred,R-type Ca^2+ channel; 10^-9M of compound,4 to 5 min
same,basal sustained increase of [Ca]i,"R-type Ca^2+ channel; 10^-9M, freshly isolated human aortic endothelial cells, Figure 22",decrease
same,blockade of the R-type Ca^2+ channel across cell types,"R-type Ca^2+ channel; incl. MG63, FAOS-2, atherosclerotic human VSM cells, endothelial cells, T-lymphocytes, platelets (not shown), AOSMC-9",blocked the R-type Ca^2+ channel in all cell types used
same,effect on the TTX-sensitive fast Na^+ current,[2],no effect
same,paw oedema induced by histamine,mouse paw oedema,dose-related inhibition
same,paw oedema induced by serotonin,mouse paw oedema,dose-related inhibition
same,bradykinin-induced paw oedema,mouse paw oedema; 30 min prior,unaffected
same,"ICa amplitude (L-type), further change",L-type Ca^2+ channel; 5 x 10^-7M,a further slight increase
same,decrease of ICa amplitude (L-type),L-type Ca^2+ channel; 10^-9M,10%
same,L-type ICa,L-type Ca^2+ channel; 10^-11 to 10^-10M,not affected
same,contraction of rat uterus induced by BK,rat uterus,selective in its ability to inhibit
same,T-type ICa amplitude,T-type Ca^2+ current,no effect; also recorded: relative weak depressing effect
same,"mononuclear cells influx, intrapleural PAF","murine model of pleurisy; 30, i.p.",antagonised significantly
same,"plasma extravasation, intrapleural PAF","murine model of pleurisy; 30, i.p.",antagonised significantly
same,"neutrophils cells, intrapleural carrageenan",murine model of pleurisy; [6],inhibited significantly
same,"total cells, intrapleural carrageenan",murine model of pleurisy; [6],inhibited significantly
